IC50 data for 22 compounds are collected here from patent US20110178064A1, “SPIRO CONDENSED […] DERIVATIVES FOR USE AS ANTIBACTERIAL” (A[…]&D, priority 2007, published 2011).

Escherichia coli DNA gyrase A/B tetramer, sequence (P0AES4 whole entry, one chain of several): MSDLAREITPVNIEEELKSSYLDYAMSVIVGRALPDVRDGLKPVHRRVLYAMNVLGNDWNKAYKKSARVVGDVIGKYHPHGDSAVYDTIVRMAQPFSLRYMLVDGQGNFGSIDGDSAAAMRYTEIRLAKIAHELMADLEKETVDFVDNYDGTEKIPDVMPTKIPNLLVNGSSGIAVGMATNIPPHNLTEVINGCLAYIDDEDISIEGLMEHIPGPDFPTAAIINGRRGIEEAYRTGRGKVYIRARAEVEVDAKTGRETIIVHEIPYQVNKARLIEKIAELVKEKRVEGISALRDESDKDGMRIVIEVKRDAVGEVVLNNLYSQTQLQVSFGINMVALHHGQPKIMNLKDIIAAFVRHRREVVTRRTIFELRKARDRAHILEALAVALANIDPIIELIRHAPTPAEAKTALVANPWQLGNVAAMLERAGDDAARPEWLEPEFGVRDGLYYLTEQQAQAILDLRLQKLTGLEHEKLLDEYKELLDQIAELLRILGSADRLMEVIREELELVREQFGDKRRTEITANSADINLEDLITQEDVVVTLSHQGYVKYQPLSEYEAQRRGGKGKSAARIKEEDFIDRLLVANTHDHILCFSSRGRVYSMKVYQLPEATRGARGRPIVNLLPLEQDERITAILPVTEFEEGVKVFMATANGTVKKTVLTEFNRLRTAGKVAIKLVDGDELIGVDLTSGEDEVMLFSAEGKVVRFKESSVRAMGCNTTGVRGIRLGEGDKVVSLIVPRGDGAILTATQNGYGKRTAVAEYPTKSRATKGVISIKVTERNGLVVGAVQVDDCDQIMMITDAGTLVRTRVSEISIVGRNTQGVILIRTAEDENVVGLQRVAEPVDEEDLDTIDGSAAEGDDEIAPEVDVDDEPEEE

The first assay addresses Escherichia coli DNA gyrase A/B tetramer (Escherichia coli, UniProt P0AES4+P0AES6). Briefly: DNA gyrase supercoiling activity fluorescence polarisation assay. Format: biochemical.
Conditions: not given
Here is the method: The supercoiling reactions may be quenched by the addition of 10 microliters/well of 40 nM oligodeoxynucleotide probe in 3× triplex-forming buffer consisting of 150 mM NaCl, and 150 mM sodium acetate at pH 3.5. The oligodeoxynucleotide probe may be 5′-BODIPY-FL-labeled […]. After 60 minutes, the fluorescence anisotropy of the BODIPY-FL may be measured in a Tecan Ultra plate reader, using 485 nm excitation and 535 nm emission filters equipped with polarizers. The IC50 may be determined by nonliner regression using two control reactions. The first contains no test compound but 0.8% DMSO (100% activity) while the second control reaction contains 5 uM Ciprofloxacin and 0.8% DMSO (0% activity).
By IC50 is commonly meant the concentration that inhibits the measured activity by half. In turn, `C[C@@H]1CN2c3cnc(-c4ccoc4)cc3CC3(C(=O)NC(=O)NC3=O)[C@H]2[C@H](C)O1` (relative stereo) [Example 63, (6aS,7S,9R)-rel-3-(furan-3-yl)-7,9-dimethyl-6a,7,9,10-tetrahydro-2′H,5H-spiro[1,4-oxazino[4,3-a][1,7]naphthyridine-6,5′-pyrimidine]-2′,4′,6′(1′H,3′H)-trione] registered a concentration for half-maximal inhibition (IC50) of 35 µM.
Regarding `C[C@@H]1CN2c3ncc(-c4cnccn4)cc3CC3(C(=O)NC(=O)NC3=O)[C@H]2[C@H](C)O1` (relative stereo) [Example 52, (6aS,7S,9R)-rel-7,9-Dimethyl-3-(pyrazin-2-yl)-6a,7,9,10-tetrahydro-2′H,5H-spiro[1,4-oxazino[4,3-a][1,8]naphthyridine-6,5′-pyrimidine]-2′,4′,6′(1′H,3′H)-trione], the half-maximal inhibitory concentration (IC50) is 5 µM.
`C[C@@H]1CN2c3ncc(-c4cscn4)cc3CC3(C(=O)NC(=O)NC3=O)[C@H]2[C@H](C)O1` (relative stereo) [Example 100, (6aS,7S,9R)-rel-7,9-Dimethyl-3-(1,3-thiazol-4-yl)-6a,7,9,10-tetrahydro-2′H,5H-spiro[1,4-oxazino[4,3-a][1,8]naphthyridine-6,5′-pyrimidine]-2′,4′,6′(1′H,3′H)-trione] gave an IC50 of 7 µM.
`C[C@@H]1CN2c3cnc(-c4cncnc4)cc3CC3(C(=O)NC(=O)NC3=O)[C@H]2[C@H](C)O1` (relative stereo) [Example 60, (6aS,7S,9R)-rel-7,9-Dimethyl-3-(pyrimidin-5-yl)-6a,7,9,10-tetrahydro-2′H,5H-spiro[1,4-oxazino[4,3-a][1,7]naphthyridine-6,5′-pyrimidine]-2′,4′,6′(1′H,3′H)-trione] gave an IC50 of 6 µM.
Still for that read-out and setting: for `C[C@@H]1CN2c3ncc(Br)cc3CC3(C(=O)NC(=O)NC3=O)[C@H]2[C@H](C)O1` (relative stereo) [Example 9, (6aS,7S,9R)-rel-3-Bromo-7,9-dimethyl-6a,7,9,10-tetrahydro-1′H,5H-spiro[[1,4]oxazino[4,3-a][1,8]naphthyridine-6,5′-pyrimidine]-2′,4′,6′(3′H)-trione] the value was 3 µM; for `C[C@@H]1CN2c3ncc(C(=N)NO)cc3CC3(C(=O)NC(=O)NC3=O)[C@H]2[C@H](C)O1` (relative stereo) [Example 121, (6aS,7S,9R)-rel-N-Hydroxy-7,9-dimethyl-2′,4′,6′-trioxo-1′,3′,4′,6′,6a,7,9,10-octahydro-2′H,5H-spiro[1,4-oxazino[4,3-a][1,8]naphthyridine-6,5′-pyrimidine]-3-carboximidamide], 9 µM; for `C[C@@H]1CN2c3ccc(-c4cccnc4)nc3CC3(C(=O)NC(=O)NC3=O)[C@H]2[C@H](C)O1` (relative stereo) [Example 74, (2R,4S,4aS)-rel-2,4-Dimethyl-8-(pyridin-3-yl)-1,2,4,4a-tetrahydro-2′H,6H-spiro[1,4-oxazino[4,3-a][1,5]naphthyridine-5,5′-pyrimidine]-2′,4′,6′(1′H,3′H)-trione], 4 µM.
Same read-out and setting: for `C[C@@H]1CN2c3ncc(-c4nc5ccccc5s4)cc3CC3(C(=O)NC(=O)NC3=O)[C@H]2[C@H](C)O1` (relative stereo) [Example 87, (6aS,7S,9R)-rel-3-(1,3-Benzothiazol-2-yl)-7,9-dimethyl-6a,7,9,10-tetrahydro-2′H,5H-spiro[1,4-oxazino[4,3-a][1,8]naphthyridine-6,5′-pyrimidine]-2′,4′,6′(1′H,3′H)-trione] the value was 4 µM; for `C[C@@H]1CN2c3ncc(-c4ccncc4)cc3CC3(C(=O)NC(=O)NC3=O)[C@H]2[C@H](C)O1` (relative stereo) [Example 50, (6aS,7S,9R)-rel-7,9-Dimethyl-3-(pyridin-4-yl)-6a,7,9,10-tetrahydro-2′H,5H-spiro[1,4-oxazino[4,3-a][1,8]naphthyridine-6,5′-pyrimidine]-2′,4′,6′(1′H,3′H)-trione], 8 µM; for `CC1C[C@@H](C)[C@H]2N(C1)c1ccc(Br)nc1CC21C(=O)NC(=O)NC1=O` (stereo partly drawn) [Example 8, (6aR,7R)-3-Bromo-7,9-dimethyl-5,6a,7,8,9,10-hexahydro-1′H-spiro[pyrido[1,2-a][1,5]naphthyridine-6,5′-pyrimidine]-2′,4′,6′(3′H)-trione], greater than 83 µM.
Still for that read-out and setting: for `C[C@@H]1CN2c3ccc(-c4ccoc4)nc3CC3(C(=O)NC(=O)NC3=O)[C@H]2[C@H](C)O1` (relative stereo) [Example 76, (2R,4S,4aS)-rel-8-(Furan-3-yl)-2,4-dimethyl-1,2,4,4a-tetrahydro-2′H,6H-spiro[1,4-oxazino[4,3-a][1,5]naphthyridine-5,5′-pyrimidine]-2′,4′,6′(1′H,3′H)-trione] the value was 21 µM.
Take `C[C@@H]1CN2c3ccc(-c4ccncc4)nc3CC3(C(=O)NC(=O)NC3=O)[C@H]2[C@H](C)O1` (relative stereo) [Example 78, (2R,4S,4aS)-rel-2,4-dimethyl-8-(pyridin-4-yl)-1,2,4,4a-tetrahydro-2′H,6H-spiro[1,4-oxazino[4,3-a][1,5]naphthyridine-5,5′-pyrimidine]-2′,4′,6′(1′H,3′H)-trione]: 2 µM corresponded to half-maximal inhibition (IC50).
On the same count and under the same terms, for `C[C@@H]1CN2c3cnc(-c4nc5ccccc5s4)cc3CC3(C(=O)NC(=O)NC3=O)[C@H]2[C@H](C)O1` (relative stereo) [Example 89, (6aS,7S,9R)-rel-3-(1,3-benzothiazol-2-yl)-7,9-dimethyl-6a,7,9,10-tetrahydro-2′H,5H-spiro[1,4-oxazino[4,3-a][1,7]naphthyridine-6,5′-pyrimidine]-2′,4′,6′(1′H,3′H)-trione] the value was 11 µM; for `Cc1nnc(-c2cc3c(nc2F)N2C[C@@H](C)O[C@@H](C)[C@@H]2C2(C3)C(=O)NC(=O)NC2=O)s1` (relative stereo) [Example 16, (6aS,7S,9R)-rel-2-Fluoro-7,9-dimethyl-3-(5-methyl-1,3,4-thiadiazol-2-yl)-6a,7,9,10-tetrahydro-1′H,5H-spiro[[1,4]oxazino[4,3-a][1,8]naphthyridine-6,5′-pyrimidine]-2′,4′,6′(3′H)-trione], 7 µM.
For the compound `C[C@@H]1CN2c3ccc(-c4nc5ccccc5s4)nc3CC3(C(=O)NC(=O)NC3=O)[C@H]2[C@H](C)O1` (relative stereo) [Example 88, (2R,4S,4aS)-rel-8-(1,3-Benzothiazol-2-yl)-2,4-dimethyl-1,2,4,4a-tetrahydro-2′H,6H-spiro[1,4-oxazino[4,3-a][1,5]naphthyridine-5,5′-pyrimidine]-2′,4′,6′(1′H,3′H)-trione], half-maximal inhibition (IC50) was put at 2 µM.
The same measure, in the same setting: with `C[C@@H]1CN2c3ccc(-c4cccc5cccnc45)nc3CC3(C(=O)NC(=O)NC3=O)[C@H]2[C@H](C)O1` (relative stereo) [Example 75, (2R,4S,4aS)-rel-2,4-Dimethyl-8-(quinolin-8-yl)-1,2,4,4a-tetrahydro-2′H,6H-spiro[1,4-oxazino[4,3-a][1,5]naphthyridine-5,5′-pyrimidine]-2′,4′,6′(1′H,3′H)-trione] the figure was 8 µM.
The same measure, in the same setting: with `C[C@@H]1CN2c3ccc(-c4cnccn4)nc3CC3(C(=O)NC(=O)NC3=O)[C@H]2[C@H](C)O1` (relative stereo) [Example 80, (2R,4S,4aS)-rel-2,4-Dimethyl-8-(pyrazin-2-yl)-1,2,4,4a-tetrahydro-2′H,6H-spiro[1,4-oxazino[4,3-a][1,5]naphthyridine-5,5′-pyrimidine]-2′,4′,6′(1′H,3′H)-trione] the figure was greater than 5 µM.
The same measure, in the same setting: for `C[C@@H]1CN2c3ccc(-c4nccs4)nc3CC3(C(=O)NC(=O)NC3=O)[C@H]2[C@H](C)O1` (relative stereo) [Example 85, (2R,4S,4aS)-rel-2,4-Dimethyl-8-(1,3-thiazol-2-yl)-1,2,4,4a-tetrahydro-2′H,6H-spiro[1,4-oxazino[4,3-a][1,5]naphthyridine-5,5′-pyrimidine]-2′,4′,6′(1′H,3′H)-trione] the value was 8 µM.
In turn, `C[C@@H]1CN2c3ncc(-c4ccc(-c5ccn[nH]5)s4)cc3CC3(C(=O)NC(=O)NC3=O)[C@H]2[C@H](C)O1` (relative stereo) [Example 36, (6aS,7S,9R)-rel-7,9-Dimethyl-3-[5-(1H-pyrazol-5-yl)thiophen-2-yl]-6a,7,9,10-tetrahydro-2′H,5H-spiro[1,4-oxazino[4,3-a][1,8]naphthyridine-6,5′-pyrimidine]-2′,4′,6′(1′H,3′H)-trione] displayed an IC50 of 2 µM.
Still for that read-out and setting: with `C[C@@H]1CN2c3ncc(-c4ccccn4)cc3CC3(C(=O)NC(=O)NC3=O)[C@H]2[C@H](C)O1` (relative stereo) [Example 38, (6aS,7S,9R)-rel-7,9-Dimethyl-3-(pyridin-2-yl)-6a,7,9,10-tetrahydro-2′H,5H-spiro[1,4-oxazino[4,3-a][1,8]naphthyridine-6,5′-pyrimidine]-2′,4′,6′(1′H,3′H)-trione] the figure was 12 µM.
Still for that read-out and setting: with `C[C@@H]1CN2c3ncc(-c4c[nH]cn4)cc3CC3(C(=O)NC(=O)NC3=O)[C@H]2[C@H](C)O1` (relative stereo) [Example 37, (6aS,7S,9R)-rel-3-(1H-Imidazol-4-yl)-7,9-dimethyl-6a,7,9,10-tetrahydro-2′H,5H-spiro[1,4-oxazino[4,3-a][1,8]naphthyridine-6,5′-pyrimidine]-2′,4′,6′(1′H,3′H)-trione] the figure was 12 µM.

Staying with this assay, now noted: E. coli DNA gyrase supercoiling; asterisk: no IC50 obtained at or below the indicated concentration; read-out: IC50.
Consider `CC1CN2c3ncc(-c4cn[nH]c4)cc3CC3(C(=O)NC(=O)NC3=O)C2C(C)O1` [Example 44, (6aS,7S,9R)-rel-7,9-Dimethyl-3-(1H-pyrazol-4-yl)-6a., 7,9,10-tetrahydro-2′H,5H-spiro[1,4-oxazino[4,3-a][1,8]naphthyridine-6,5′-pyrimidine]-2′,4′,6′(1′H,3′H)-trione], for which the IC50 is greater than 10 µM.
